Patent EP4458353A1, “ANTICARIOGENIC SYNERGETIC COMPOSITION FOR ORAL CARE” (SkyLab AG, priority 2023, dated 2024)
Like-named read-outs stand apart in the source and are kept apart here.

Columns and labels:
[1] = tested on: Streptococcus sobrinus; assay: Minimum inhibitory concentration (MIC), serial two-fold dilution with resazurin test; format: cell-based; settings: Streptococcus sobrinus, S. sobrinus
[2] = tested on: Streptococcus mutans No 22081; assay: Growth of planktonic culture in liquid nutritive medium (CFU count after 5 h); format: cell-based; settings: S. mutans planktonic culture; 1 mg/mL; 5 h incubation
Method: Example ? 3. Antibacterial activity of naringenin, guava leaf extract and lysozyme was assessed from the growth pattern of the reference strain Streptococcus mutans No 22081 (UNU Collection under I. I. Mechnikov Research Institute if Vaccines and sera) in liquid nutritive medium according to the procedure: • 1) Prepare the heart-brain broth (DM106D, Mast Group Ltd., U.K.) and Columbian agar supplemented with defibrinated blood (OOO "GEM" Cat. No BP-023) in accordance with the manufacturer's instruction. • 2) Using microbiological loop prepare the suspension (at concentration 1.5·10^8 CFU/mL) of 24 hour agar culture of S. mutans in the sterile buffered saline (BS) under visual control with McFarland standard 0.5. […] Prepare the composition of naringenin 0.33 mg/mL, lysozyme 0.33 mg/mL, and guava leaf extract 0.33 mg/mL. • 4) Put the plate with the samples into the incubator with 5% CO2 atmosphere, and incubate at 37°C for 5 h on shaking apparatus. • 5) After the 5 h incubation reinoculate the agar nutritive medium with the planktonic S. mutans culture to count CFU per 1 mL of medium. • 6) Perform optical density (OD) measurements using multimodal microplate reader at the wavelength 620 nm before the incubation (OD0) and then after the culture growth for 5 h ODt=5). […]

[3] = tested on: Streptococcus mutans; assay: Minimum biofilm inhibitory concentration (MBIC), crystal violet staining; format: cell-based; settings: S. mutans
Method: (§1) Group of examples No 4 - 6. Anti-biofilm activity of the substance or of the composition of substances was assessed from minimum biofilm inhibitory concentration (MBIC) and from the rate of biofilm formation on hydroxyapatite disks.
(§2) Reference strains Streptococcus mutans and S. Sobrinus were used as the bacterial models.
(§3) Example No 4. MBIC as the measure of the substance effect on the bacterial biofilm is equal to minimum concentration inhibiting the biofilm formation or disruption of already formed biofilm during 24 hour incubation.
(§4) MBIC of individual components of the composition, specifically, naringenin, guava leaf CO2 extract, and enzymes lysozyme and labiase can be determined according to the procedure: • 1) All stages of nutritive medium preparation, preparation and incubation of bacterial cultures in 96-well microtiter plates with the test composition of the substances added into nutritive medium were as described in Example 1. • 2) All controls for the culture growth, for purity of nutritive medium and for solvents were as described in Example 1. • 3) Incubate the plates at 37 °C for 24 ± 4 h without the use the orbital shaker. • 4) Stain the bacterial biofilm accumulated on bottom of the plate wells with crystal violet. For this purpose remove the planktonic culture from the plate wells after 24 h incubation and wash with two portions of phosphate-buffered saline (PBS, pH 7.4) to remove remaining planktonic culture. Then dry the plate for 12-15 hours. Add 100 µL of 0.5% crystal violet solution (Sigma-Aldrich, USA), dissolved in 96% ethanol followed by incubation for 20 minutes. After removal of crystal violet solution from the wells wash the plate with 3-4 portions of PBS. After drying add […] of 96% ethanol into the wells to elute the crystal violet, which has bound to the biofilm. • 5) Shake the plate on the orbital shaker for 2 minutes at 37 °C and then measure optical density (OD) at the wavelength of 550nm using multimodal microplate reader against the blank (the well, where the sterile medium LB was incubated and then exposed to all staining manipulations). Since the serial dilution method with 2-fold dilution steps is used for MBIC determination, the difference between the adjacent dilution is considered as non-significant, and MBIC is defined as the median value calculated for 5 independent biological replicates of the experiment. • 6) The following concentrations were tested: naringenin and guava leaf extract at concentrations 1.6, 0.8, 0.4, 0.2, 0.1, 0.05 mg/mL; lysozyme and labiase at concentrations 4.0, 2.0, 1.0, 0.5, 0.25, 0.125 mg/mL. Well-known antibacterial components were used as controls: chlorohexidine bigluconate at concentrations 64, 32, 16, 8, 4 µg/mL; zinc gluconate at concetrations 5.0, 2.5, 1.25, 0.6, 0.3, 0.15 mg/mL.

[4] = tested on: Streptococcus sobrinus; assay: as above; format: cell-based; settings: S. sobrinus
Method: as §1, §2, §3, §4

[5] = tested on: S. mutans; settings: naringenin at concentration 200 µg/mL; cited from earlier work

O=C1C[C@@H](c2ccc(O)cc2)Oc2cc(O)cc(O)c21 [Naringenin, naringenin]
MIC ([1]; 24 h at 37 °C, read-out: MIC value in individual replicate Replicate 1): > 1600 µg/mL | MIC ([1]; 24 h at 37 °C, read-out: MIC value in individual replicate Replicate 2): > 1600 µg/mL | MIC ([1]; 24 h at 37 °C, read-out: MIC value in individual replicate Replicate 3): > 1600 µg/mL | MIC ([1]; 24 h at 37 °C, read-out: MIC value in individual replicate Replicate 4): > 1600 µg/mL | MIC ([1]; 24 h at 37 °C, read-out: MIC value in individual replicate Replicate 5): > 1600 µg/mL | MIC ([1]; median of 5 replicates, read-out: MIC Median value): > 1600 µg/mL | % of CFU obtained for control [2]: 4.8% | ∑ CFU, mL [2]: 4.3x10^7 CFU, mL | MBIC in indicvdual replicates Replicate 1 ([3]; 24 h incubation): 0.8 mg/mL | MBIC in indicvdual replicates Replicate 2 ([3]; 24 h incubation): 0.8 mg/mL | MBIC in indicvdual replicates Replicate 3 ([3]; 24 h incubation): 0.8 mg/mL | MBIC in indicvdual replicates Replicate 4 ([3]; 24 h incubation): 0.4 mg/mL | MBIC in indicvdual replicates Replicate 5 ([3]; 24 h incubation): 0.8 mg/mL | MBIC Median value ([3]; median of 5 replicates): 0.8 mg/mL | MBIC in indicvdual replicates Replicate 1 ([4]; 24 h incubation): >1.6 mg/mL | MBIC in indicvdual replicates Replicate 2 ([4]; 24 h incubation): >1.6 mg/mL | MBIC in indicvdual replicates Replicate 3 ([4]; 24 h incubation): >1.6 mg/mL | MBIC in indicvdual replicates Replicate 4 ([4]; 24 h incubation): >1.6 mg/mL | MBIC in indicvdual replicates Replicate 5 ([4]; 24 h incubation): >1.6 mg/mL | MBIC Median value ([4]; median of 5 replicates): >1.6 mg/mL | biofilm formation [5]: virtually completely inhibited
